In patent publication US5969174A, “Competitive inhibitors of glyoxalase I and method of generating such competitive inhibitors inside tumor cells” (priority 1998, dated 1999):

Columns and labels:
[1] = tested on: L1210 cells; experiment: Growth inhibition / cytotoxicity, murine leukemia L1210 cells in culture; assay type: cell-based
[2] = tested on: B16 melanotic melanoma cells; experiment: Growth inhibition, B16 melanotic melanoma cells in culture; assay type: cell-based, murine
Method: As a consequence, they are the strongest competitive inhibitors of human GlxI yet described, Table 1. […] With both cell lines there was some correlation between the Ki values of the enediol analogs and the IC50 values of the corresponding diethyl esters.
^d Sp-bromobenzylglutathione diethyl ester. Cells were incubated for
48 h in RPMI 1640/10% fetal calf serum (37° C.) in the absence and
in the presence of enzyme inhibitor. After the initial addition of
inhibitor at time zero, fresh inhibitor was added every 12 h in order to
compensate partially for the loss of inhibitor due to spontaneous
hydrolytic deethylation in the growth medium.

[3] = tested on: splenic lymphocytes; experiment: Toxicity toward nonproliferating splenic lymphocytes; assay type: cell-based; conditions: L1210 cells versus splenic lymphocytes
Excerpt: Conditions: See Table 1. Error bars represent standard deviations for triplicate determinations. Different symbols correspond to experiments carried out on different days.
This is illustrated for 2(Et)2 and S-p-bromobenzylglutathionediethyl ester by the dose-response curves of FIG. 3. […] Therefore, tumor cells might not be able to detoxify the inhibitors as rapidly as normal cells. In order to determine whether this could be a factor in the present study, the glyoxalase activities in both L1210 cells and splenic lymphocytes were determined. Indeed, while the GlxI activities in the two cell lines are nearly equal, the GlxII activity in L1210 cells is about 10-fold lower than that in splenic lymphocytes. The activities of GlxI and GlxII in L1210 cells were respectively 0.31±0.03 U/mg and 0.02±0.003 U/mg, while the activities in splenic lymphocytes were respectively 0.36±0.03U/mg and 0.20±0.03 U/mg.

[4] = target: human erythrocyte GlxI; conditions: of the unethylated species with human erythrocyte GlxI (17); read-out: Ki, competitive inhibition constant; cited from earlier work
[5] = tested on: HL60 cells; conditions: lower with HL60; literature (13); cited from earlier work
[6] = tested on: human tumor cell lines; conditions: literature; cited from earlier work
[7] = tested on: GlxII; conditions: cited from earlier work

With `CCOC(=O)CNC(=O)[C@H](CSCc1ccc(Br)cc1)NC(=O)CC[C@H](N)C(=O)OCC` [p-BrbzylSG(Et)2, Sp-bromobenzylglutathione diethyl ester, reference compound] the “relative potency, L1210” value ([1]; L1210 cells) was “as potent as 2(Et)2 and 3(Et)2”, the IC50 ([1]; Mus musculus, L1210, 48 h, RPMI 1640/10% fetal calf serum, 37° C., fresh inhibitor every 12 h, mean ± SD, read-out: IC50, 50% growth inhibition, L1210) was 9.8 ± 3.2 µM and the IC50 ([2]; Mus musculus, 48 h, RPMI 1640/10% fetal calf serum, 37° C., fresh inhibitor every 12 h, mean ± SD, read-out: IC50, 50% growth inhibition, B16) was 15 ± 5 µM. For the same compound, the “relative potency, B16” value ([2]; versus 3(Et)2) was “about half as potent as 3(Et)2”, the “toxicity to splenic lymphocytes / selectivity in words” value ([3]; listed as S-p-Bromobenzylglutathione diethyl ester) was “selective toxicity” and the “toxicity to splenic lymphocytes / selectivity in words” value ([3]; listed as S-p-bromobenzylglutathione diethyl ester) was “significant selective toxicity to L1210 cells”. For the same compound, the Ki [4] was 0.17 µM, the “IC50 with HL60 cells versus nonproliferating human neutrophils” value [5] was “about 5 -fold” and the “toxicity to human tumor cell lines” value [6] was “toxic to a range of different human tumor cell lines in culture”. The “substrate for GlxII in words” value [7] was “cannot serve as a substrate for GlxII”.
